# Results as given in US5661177A, “Zinc cysteate its preparation and uses in pharmacy and cosmetology” (Chimie et Biologie, priority 1988, dated 1997).
# Entries after “also recorded” stand apart in the source; their conditions may differ. Like-named read-outs stand apart in the source and are kept apart here.
# Key:
# skin of Guinea Pig [1] = details: TABLE I, cited from earlier work
# [2] = system: Pityrosporum orbiculare 1219; assay: Antifungic test, discs method (inhibition diameter); type: cell-based; details: 72 hours at 37° C.
# Method: (§1) CB 619 was tested against Pityrosporum orbiculare 1219 and Pityrosporum ovale 1363, both from the Pasteur Institute, in the Dixon's culture medium, modified by Randjandiche according to the following composition:
# (§2) 30 ml of culture medium were cast in each Petri dish of 90 mm of diameter.
# (§3) The inoculum was a 2 ml suspension of Pityrosporum containing 10,000,000 germs, 72 hours old, per ml.
# (§4) After drying at 37° C., tests were carried out according to discs method or to cylinders method.
# (§5) According to the discs method, discs of 6 mm of Antibiotica-Testblattchen Schleider & Schull, reference 2668/2, are soaked in test solution, then set down onto the seeded medium.
# (§6) According to both methods, the inhibition areas were measured after a time of incubation of 72 hours at 37° C.
# (§7) According to the discs method, Intrinsic Inhibition Power of CB 619 is, the inhibition diameter being given in mm: […]
# Pityrosporum ovale 1363 [3] = assay: as above; type: cell-based; details: 72 hours at 37° C.
# Method: as §1, §2, §3, §4, §5, §6, §7
# skin of Guinea Pig [4] = details: in vivo
# Description: The experiment was made according to the technical sheet No. 44 (J. Pharmacol. Paris, 1978, 9, 1, 103-6) which conforms to the Magnusson and Kligmann technique.
# This sensibilization test according to Magnusson and Kligmann is described in detail in annex 3.
# This test is designed to create a delayed allergic reaction in the guinea pig.
# Female albino Hartley-breed guinea pigs weighing between 300 and 500 grams.
# For the intradermic tract, the product is placed in solution or suspension in bidistilled water, or a suitable solvent. Intradermic injections of 0.1 ml are given in the preliminarily sheared and shaved dorsal region of four albino guinea pigs in increased concentrations. […] The reading of possible reactions takes place after 24 hours. […] If this is not the case, the scale utilized will depend on the maximum non-irritating concentration (MNIC), whose determination may require a second series of tests with concentrations to be determined in accordance with the results of the first.
# The same procedures are used for the external cutaneous tract, with the product being placed, in certain cases, in suspension or solution in vaseline. […] Readings are taken one hour following removal of the pads. […]
# Readings of local reactions take place 24 and 48 hours following removal of the pad. […]
# [5] = system: lipidic synthesis of the sebaceous gland; assay: In vitro antiseborrheic properties (14C-acetate incorporation, prepucial gland of the rat); type: cell-based
# Method: In vitro antiseborrheic properties of CB 619
# According to the experiment, the lipidic metabolic activity of the prepucial gland of the rat was evaluated. The lipidic synthesis of the sebaceous gland was evaluated by adding, as marked precursor, sodium ^14 C-acetate.
# CB 619 was tested in comparison with carboxymethylcysteine (CMC) as a reference.
# [6] = system: Pityrosporum orbiculare 1219; assay: Antifungic test, cylinders method (inhibition diameter); type: cell-based; details: 72 hours at 37° C.
# Method: (§8) CB 619 was tested against Pityrosporum orbiculare 1219 and Pityrosporum ovale 1363, both from the Pasteur Institute, in the Dixon's culture medium, modified by Randjandiche according to the following composition: 30 ml of culture medium were cast in each Petri dish of 90 mm of diameter. The inoculum was a 2 ml suspension of Pityrosporum containing 10,000,000 germs, 72 hours old, per ml. After drying at 37° C., tests were carried out according to discs method or to cylinders method. According to cylinders method, cylinders of 4 mm of diameter were excavated in gelose with a stainless steel tool, and 75 microliters of the solution of the tested product were introduced into each cylinder. According to both methods, the inhibition areas were measured after a time of incubation of 72 hours at 37° C. According to cylinders method, Intrinsic Inhibition Power of CB 619 is, the inhibition diameter being given in mm: […]
# Pityrosporum ovale 1363 [7] = assay: as above; type: cell-based; details: 72 hours at 37° C.
# Method: as §8
# eye = details: rabbit, in vivo
# Description: The experiment was made according to the recommendations of the French "Arrete Ministeriel" of the 21 February 1984 which specifies the official method to determinate the eye irritation (E.I.).
# The present method is utilized so as to evaluate the kind and degree of irritation brought about in the eyes by the use of a cosmetic or bodily hygiene product.
# The method is based on observation of ocular reaction provoked by the sole instillation of the product.
# Directly apply the product in the conjunctival pouch of one of the eyes in the following doses:
# Observe the eye of the rabbits one hour, and then 1, 2, 3, 4 and 7 days following the instillation, utilizing the non-instilled eye as a control in order to evaluate possible irritation in the treated eye.
# Add up the scores gathered for each of the six rabbits as of each time of observation. One thereby obtains the index of individual ocular irritation: I.O.I.
# At each time of observation calculate the average individual ocular irriatation for the six rabbits. One thereby obtains the index of mean ocular irritation: O.I.
# Note among the six ocular irritation scores the one with the highest value. One thereby obtains the index of maximum ocular irritation: M.O.I. The time it takes for the latter to appear will be specified in the minutes or report of the experiment.
# In an initial approximation, the product is classified in one of the six categories in accordance with the maximum ocular irritation scores.
# In a second evaluation, the persistence of lesions intervenes as a corrective of the preceding classification; the ocular irritation and individual ocular irritation scores at different times are taken into account:
# pH of aqueous solution = type: physicochemical; details: 6% solution in water
# Mouse = assay: Acute toxicity in the Mouse (LD 50); type: in vivo; details: for LD 50: male and female mice, 14 days, Miller and Tainter method
# Method: Acute toxicity of CB 619 in the Mouse
# The lethal dosis 50% (LD 50) of CB 619 were evaluated when dissolved in bidistilled water and administered by 0.2 to 0.3 ml/kg volumes, monitoring the effect during 14 days.
# [8] = system: wound made by loss of substance; assay: Cicatrizing activity in the rat (area of wound); type: in vivo
# Description: Cicatrizing activity of CB 619 in the rat
# The experiment was to calculate the area of the wound made by loss of substance.
# skin = details: rabbit, in vivo
# Description: Skin irritation index of CB 619 in the Rabbit
# The experiment was made according to the French "Arrete Ministeriel" of the 21th of February 1982 which specifies the official method for the determination Of the skin primary irritation index (SPI).
# The official method for the determination of the index of primary cutaneous irritation is described in detail in Annex 1.
# The present method is utilized so as to determine the index of primary cutaneous irritation for a cosmetic or bodily hygiene product.
# This method is based on the observation of cutaneous reactions provoked through the sole application of the principle.
# 4.1. Male albino rabbits of defined breed, weighing around 2.5 kg. So as to be perfectly acclimated, the animals must be kept in individual cages for one week prior to the experiment, and; must receive food of invariably balanced composition.
# 5.1.1. The day before application of the product, shear the back and flanks of the rabbits (4.1) with shears (4.3) so as to clear a surface of about 14 cm×14 cm; proceed with care in order to avoid all irritation. Verify skin condition so as to retain but six animals presenting healthy and clean-shaved skin.
# 5.1.2. […]
# Primary cutaneous irritation must be evaluated around thirty minutes subsequent to removal of the dressing; a second evaluation is to take place 48 hours later, i.e. 72 hours after application of the product. […]
# cicatrization of wounds = details: normal animal, without zinc deficiency; Favier et al. 1980; cited from earlier work
compound,measurement,setting,value
CCOC(=O)c1ccc(N)cc1 [Benzocaine],Class. (degree of allergenicity),skin of Guinea Pig [1]; reading 24,II (9-28)
same,Number of animals with Note 0,skin of Guinea Pig [1]; reading 24,17
same,Number of animals with Note 1,skin of Guinea Pig [1]; reading 24,3
same,Number of animals with Note 2,skin of Guinea Pig [1]; reading 24,0
same,Number of animals with Note 3,skin of Guinea Pig [1]; reading 24,0
same,Percentage of animals having presented a reaction,skin of Guinea Pig [1]; reading 24,15%
same,Class. (degree of allergenicity),skin of Guinea Pig [1]; reading 48,II (9-28)
same,Number of animals with Note 0,skin of Guinea Pig [1]; reading 48,17
same,Number of animals with Note 1,skin of Guinea Pig [1]; reading 48,3
same,Number of animals with Note 2,skin of Guinea Pig [1]; reading 48,0
same,Number of animals with Note 3,skin of Guinea Pig [1]; reading 48,0
same,Percentage of animals having presented a reaction,skin of Guinea Pig [1]; reading 48,15%
"N[C@@H](CS(=O)(=O)O)C(=O)[O-].N[C@@H](CS(=O)(=O)O)C(=O)[O-].O.O.[Zn+2] [CB 619, dihydrate of the zinc salt of L-cysteic acid]",Cell multiplication,human fibroblast cells; 1 and 5 microgram/ml,increases the 5 cell multiplication in accordance with the concentration
same,Significance of increase in cell multiplication (days),human fibroblast cells; 1 microgram/ml,significant on the sixth day
same,Significance of increase in cell multiplication (days),human fibroblast cells; 5 microgram/ml,"on the fourth, sixth and eighth days"
same,"Intrinsic Inhibition Power, inhibition diameter",[2]; 1 mg,6 mm
same,"Intrinsic Inhibition Power, inhibition diameter",[2]; 2 mg,7 mm
same,"Intrinsic Inhibition Power, inhibition diameter",[2]; 3 mg,9 mm
same,"Intrinsic Inhibition Power, inhibition diameter",[2]; 4 mg,11 mm
same,"Intrinsic Inhibition Power, inhibition diameter",[2]; 5 mg,13 mm
same,"Intrinsic Inhibition Power, inhibition diameter",Pityrosporum ovale 1363 [3]; 1 mg,6 mm
same,"Intrinsic Inhibition Power, inhibition diameter",Pityrosporum ovale 1363 [3]; 2 mg,7 mm
same,"Intrinsic Inhibition Power, inhibition diameter",Pityrosporum ovale 1363 [3]; 3 mg,9 mm
same,"Intrinsic Inhibition Power, inhibition diameter",Pityrosporum ovale 1363 [3]; 4 mg,11 mm
same,"Intrinsic Inhibition Power, inhibition diameter",Pityrosporum ovale 1363 [3]; 5 mg,13 mm
same,Allergenicity (sensibilization),skin of Guinea Pig [4],no allergenic properties
same,Inhibition of the lipidic synthesis,[5]; 10^-3 M,41.8%
same,Antiseborrheic activity compared with carboxymethylcysteine,"[5]; 10^-3 M, CB 619 versus CMC",the more active
same,Inhibition of the lipidic synthesis,[5]; 10^-4 M,33.7%
same,"Intrinsic Inhibition Power, inhibition diameter",[6]; concentration of 2%,10 mm
same,"Intrinsic Inhibition Power, inhibition diameter",[6]; saturated solution,11 mm
same,"Intrinsic Inhibition Power, inhibition diameter",Pityrosporum ovale 1363 [7]; concentration of 2%,10 mm
same,"Intrinsic Inhibition Power, inhibition diameter",Pityrosporum ovale 1363 [7]; saturated solution,11 mm
same,Eye irritation (E.I.),eye,under 2
same,Eye irritation classification,eye,very weakly irritant
same,Maximum eye irritation,eye,5.83
same,pH of a 6% solution,pH of aqueous solution,about 6.30
same,LD 50,Mouse; intraperitoneally,100 ± 13 mg/kg
same,Signs at the toxic dosis,"Mouse; mouse, toxic dosis",animals become isolated in their cage; also recorded: Their hair stands up and they move with difficulty; also recorded: No diarrhea was observed
same,LD 50,Mouse; orally,1650 ± 60 mg/kg
same,Cicatrization,[8]; 3% in a 2% carbopol gel,enhances cicatrization
same,Cicatrization,[8]; 10% in a 2% carbopol gel,no more active
same,Solubility in water,,~6 weight-percent by volume
same,Skin irritation classification,skin,non-irritant
same,Skin primary irritation index (SPI),skin,0.1666
Nc1ccc(N)cc1 [Diamine paraphenylene],Class. (degree of allergenicity),skin of Guinea Pig [1]; reading 24,V (81-100)
same,Number of animals with Note 0,skin of Guinea Pig [1]; reading 24,3
same,Number of animals with Note 1,skin of Guinea Pig [1]; reading 24,13
same,Number of animals with Note 2,skin of Guinea Pig [1]; reading 24,4
same,Number of animals with Note 3,skin of Guinea Pig [1]; reading 24,0
same,Percentage of animals having presented a reaction,skin of Guinea Pig [1]; reading 24,85%
same,Class. (degree of allergenicity),skin of Guinea Pig [1]; reading 48,IV (65-80)
same,Number of animals with Note 0,skin of Guinea Pig [1]; reading 48,4
same,Number of animals with Note 1,skin of Guinea Pig [1]; reading 48,12
same,Number of animals with Note 2,skin of Guinea Pig [1]; reading 48,4
same,Number of animals with Note 3,skin of Guinea Pig [1]; reading 48,0
same,Percentage of animals having presented a reaction,skin of Guinea Pig [1]; reading 48,80%
CCN(CC)CCNC(=O)c1ccc(N)cc1 [Procainamide],Number of animals with Note 0,skin of Guinea Pig [1]; reading 24,6
same,Number of animals with Note 1,skin of Guinea Pig [1]; reading 24,5
same,Number of animals with Note 2,skin of Guinea Pig [1]; reading 24,9
same,Number of animals with Note 3,skin of Guinea Pig [1]; reading 24,0
same,Percentage of animals having presented a reaction,skin of Guinea Pig [1]; reading 24,70%
same,Number of animals with Note 0,skin of Guinea Pig [1]; reading 48,6
same,Number of animals with Note 1,skin of Guinea Pig [1]; reading 48,5
same,Number of animals with Note 2,skin of Guinea Pig [1]; reading 48,9
same,Number of animals with Note 3,skin of Guinea Pig [1]; reading 48,0
same,Percentage of animals having presented a reaction,skin of Guinea Pig [1]; reading 48,70%
OCC(O)CS (stereo not shown) [Thioglycerol],Class. (degree of allergenicity),skin of Guinea Pig [1]; reading 24,III (29-64)
same,Number of animals with Note 0,skin of Guinea Pig [1]; reading 24,7
same,Number of animals with Note 1,skin of Guinea Pig [1]; reading 24,9
same,Number of animals with Note 2,skin of Guinea Pig [1]; reading 24,3
same,Number of animals with Note 3,skin of Guinea Pig [1]; reading 24,0
same,Percentage of animals having presented a reaction,skin of Guinea Pig [1]; reading 24,63%
same,Class. (degree of allergenicity),skin of Guinea Pig [1]; reading 48,III (29-64)
same,Number of animals with Note 0,skin of Guinea Pig [1]; reading 48,11
same,Number of animals with Note 1,skin of Guinea Pig [1]; reading 48,8
same,Number of animals with Note 2,skin of Guinea Pig [1]; reading 48,0
same,Number of animals with Note 3,skin of Guinea Pig [1]; reading 48,0
same,Percentage of animals having presented a reaction,skin of Guinea Pig [1]; reading 48,45%
[Zn] [zinc],Cicatrization,cicatrization of wounds,does not accelerate the cicatrization
carboxymethylcysteine [CMC],Inhibition of the lipidic synthesis,[5]; 10^-3 M,24.5%
same,Inhibition of the lipidic synthesis,[5]; 10^-4 M,5.9%
